Patent US10201530B2, “Treatment of BRCA1-defective cancer or resistant cancers” (City of Hope, priority 2014, dated 2019)
Like-named read-outs stand apart in the source and are kept apart here.

Experiments:
[1] = system: PARP1 protein; assay: PARP1 protein level by Western blot; type: cell-based, human; conditions: HCC1937 cells irrespective of BRCA1 status, 4 h treatment
Protocol: For subcellular fractionation, cells were trypsinized and washed with cold PBS solution twice. […] Following centrifugation at 1,000 g for 5 min, the supernatant was collected (i.e., cytoplasmic fraction) and pellets were washed with the same buffer twice. The washed samples were extracted for 40 min on ice with fractionation buffer containing 0.5% NP-40 for nuclear fraction. All the samples were sonicated and clarified by centrifugation at 16,000 g for 15 min. Protein concentrations of all fractions were determined with Bio-Rad Protein Assay (Bio-Rad Laboratories, Hercules, Calif.). Immunoblotting was performed as described previously (21,22). Briefly, equal amounts of boiled protein samples were subjected to SDS-polyacrylamide gel electrophoresis (PAGE) and transferred onto nitrocellulose membranes (Bio-Rad Laboratories). Membranes were blocked for 1 hour in 3% BSA in Tris buffered saline containing 0.05% Tween 20 (TBST) and incubated for 1 hour with primary antibody (1:500 or 1:1000) diluted in TBST containing 1% BSA. After two washes with TBST, membranes were incubated for 1 hour with horseradish peroxidase-conjugated secondary Abs (1:3000 dilution) at room temperature. The immunoblots were visualized on film with the West-Q chemi-luminescence kit (GenDEPOT, Barker, Tex.).

[2] = system: OV90; assay: Cytotoxicity (MTT/DIMSCAN), OV90 cells; type: cell-based, human; conditions: read-out: IC50, mean ± SEM
Protocol: (§1) All cell lines were acquired from the American Type Culture Collection (Manassas, Va., USA). Cells were maintained in RPMI 1640 medium (Mediatech) with 10% fetal bovine serum, 2 mM glutamine, and 100 U of penicillin and 100 μg of streptomycin per ml of medium (Sigma) at 37° C. in 5% CO2. To isolate HCC1437+BRCA1 cells, parental HCC1937 cells were transfected with pcDNA3.1 plasmid expressing full-length BRCA1 cDNA. Stable transfectant clones were selected and used for drug sensitivity assays. For stable transfection, cells at 30-40% confluence were incubated overnight with […] of plasmid DNA, using FUGENE® 6 transfectin reagent (Roche Molecular Biochemical, Monza, Italy) according to the manufacturer's instructions. Cells were then selected in puromycin (1 μg/ml) (Invitrogen life Technologies, La Jolla, Calif., USA.) After 20 to 30 days, viable puromycin-resistant colonies from HCC1937 transfections were expanded and screened. The clones that stably expressed […] and retained growth potential were assayed for BRCA1 expression by Western blot analysis. By Western blot analysis, we evaluated the restoration of BRCA1 expression in the puromycin-resistant cDNA/transfectant cells.
(§2) The MTT cytotoxicity assay was performed by incubating with MTT and monitoring the MTT formazan formed by viable cells with a microplate reader at a wavelength of 560 nm; the survival, ratio was determined using the formula: (Atest−Ablank)/(Acontrol−Ablank)×100%. The cytotoxicity was determined in 96-well plates using the semiautomatic fluorescence-based Digital Imaging Microscopy System (DIMSCAN). DIMSCAN uses digital imaging microscopy to quantify viable cells, which selectively accumulate FDA (fluorescein diacetate; Alfa Aesar, Ward Hill, Mass.). DIMSCAN is capable of measuring cytotoxicity over a 4 log dynamic range by quantifying total fluorescence per well (which is proportional to the number of viable cells) after elimination of the background fluorescence by digital thresholding and eosin Y (Mallinckrodt Baker, Center Valley, Pa.) quenching. Cells were seeded into 96-well plates in 100 μL of complete medium at 2,000 to 5,000 cells per well depending on cell line growth rate. After overnight incubation, test compound was added to each well at various concentrations in 50 μL of culture medium. […] Total fluorescence per well was then measured using DIMSCAN, and the results were expressed as the ratio of the fluorescence in treated wells to the fluorescence in untreated wells (survival fraction).

[3] = system: TOV112D; assay: Cytotoxicity, TOV112D cells; type: cell-based, human; conditions: read-out: IC50, mean ± SEM
Protocol: as §1
(§3) The MTT cytotoxicity assay was performed by incubating with MTT and monitoring the MTT formazan formed by viable cells with a microplate reader at a wavelength of 560 nm; the survival, ratio was determined using the formula: (Atest−Ablank)/(Acontrol−Ablank)×100%. The cytotoxicity was determined in 96-well plates using the semiautomatic fluorescence-based Digital Imaging Microscopy System (DIMSCAN). DIMSCAN uses digital imaging microscopy to quantify viable cells, which selectively accumulate FDA (fluorescein diacetate; Alfa Aesar, Ward Hill, Mass.). DIMSCAN is capable of measuring cytotoxicity over a 4 log dynamic range by quantifying total fluorescence per well (which is proportional to the number of viable cells) after elimination of the background fluorescence by digital thresholding and eosin Y (Mallinckrodt Baker, Center Valley, Pa.) quenching. Cells were seeded into 96-well plates in 100 μL of complete medium at 2,000 to 5,000 cells per well depending on cell line growth rate. After overnight incubation, test compound was added to each well at various concentrations in 50 μL of culture medium. After incubation with the drugs for 96 hours at 37° C., FDA (final concentration: […]) and eosin Y [final concentration: 0.1% (w/v)] were added to each well and the cells were incubated for an additional 20 minutes at 37° C. Total fluorescence per well was then measured using DIMSCAN, and the results were expressed as the ratio of the fluorescence in treated wells to the fluorescence in untreated wells (survival fraction).

[4] = system: OVCAR-3; assay: Cytotoxicity, OVCAR-3 cells; type: cell-based, human; conditions: read-out: IC50, mean ± SEM
Protocol: as §1, §3

[5] = system: OVCAR-4; assay: Cytotoxicity, OVCAR-4 cells; type: cell-based, human; conditions: read-out: IC50, mean ± SEM
Protocol: as §1, §3

[6] = system: UWB1.289; assay: Cytotoxicity, UWB1.289 cells; type: cell-based, human; conditions: read-out: IC50, mean ± SEM
Protocol: as §1, §2

[7] = system: UWB1.289 + BRCA1; assay: Cytotoxicity, UWB1.289+BRCA1 cells; type: cell-based, human; conditions: read-out: IC50, mean ± SEM
Protocol: as §1, §2

[8] = system: KB-Gem; assay: Cytotoxicity, KB-Gem cells; type: cell-based, human; conditions: gemcitabine-resistant, read-out: IC50, mean ± SEM
Protocol: as §1, §3

[9] = system: KB-7D; assay: Cytotoxicity, KB-7D cells; type: cell-based, human; conditions: cisplatin-resistant, read-out: IC50, mean ± SEM
Protocol: as §1, §3

[10] = system: A2780; assay: Cytotoxicity, A2780 cells; type: cell-based, human; conditions: A2780, cisplatin-sensitive ovarian cells, read-out: IC50, mean ± SEM
Protocol: as §1, §3

[11] = system: A2780-DDDP; assay: Cytotoxicity, A2780-DDDP cells; type: cell-based, human; conditions: cisplatin-resistant ovarian cells, read-out: IC50, mean ± SEM
Protocol: as §1, §3

[12] = system: MDA-MB-231; assay: Cytotoxicity, MDA-MB-231 cells; type: cell-based, human
Protocol: as §1, §3

[13] = system: HCC1937; assay: Cytotoxicity, HCC1937 cells; type: cell-based, human
Protocol: as §1
(§4) The MTT cytotoxicity assay was performed by incubating with MTT and monitoring the MTT formazan formed by viable cells with a microplate reader at a wavelength of 560 nm; the survival, ratio was determined using the formula: (Atest−Ablank)/(Acontrol−Ablank)×100%. The cytotoxicity was determined in 96-well plates using the semiautomatic fluorescence-based Digital Imaging Microscopy System (DIMSCAN). DIMSCAN uses digital imaging microscopy to quantify viable cells, which selectively accumulate FDA (fluorescein diacetate; Alfa Aesar, Ward Hill, Mass.). DIMSCAN is capable of measuring cytotoxicity over a 4 log dynamic range by quantifying total fluorescence per well (which is proportional to the number of viable cells) after elimination of the background fluorescence by digital thresholding and eosin Y (Mallinckrodt Baker, Center Valley, Pa.) quenching. […]

[14] = system: HCC1937 + BRCA1; assay: Cytotoxicity, HCC1937+BRCA1 cells; type: cell-based, human
Protocol: as §1, §4

[15] = system: MCF-7; assay: Cytotoxicity, MCF-7 cells; type: cell-based, human
Protocol: as §1, §4

[16] = system: SKBR3; assay: Cytotoxicity, SKBR3 cells; type: cell-based, human
Protocol: as §1, §4

[17] = system: zebrafish embryos; assay: Zebrafish genotoxicity assay; type: in vivo, Danio rerio; conditions: wild-type zebrafish embryos, HU 0-50 mM
Protocol: Zebrafish (Danio rerio) were obtained from zebrafish Core facility of Taipei Medical University and maintained at 28° C. on a 14 h light/10 h dark cycle. Embryos were incubated at 28° C. and different developmental stages were determined as described (25). Wild-type embryos were treated with different concentrations of HU (0, 5, […], 20, 50 mM) or COH29 (0, 10, 20, 50, 100 μM) at 20 hpf to evaluate the mutagenic effect. Fifteen embryos were treated per well condition. […] Embryos were observed using an Olympus IX70-FLA inverted fluorescence microscope. Images were taken using SPOT digital camera system (Diagnostic Instruments, Sterling Heights, Mich., USA) and assembled with ImageJ software (26).

[18] = Homo sapiens, UWB1289, UWB1.289
[19] = Homo sapiens, UWB1289, UWB1.289 + BRCA1
[20] = Homo sapiens, MDA-MB-231, TNBC, read-out: IC50, mean ± SEM

C[C@]1(c2nc3c(C(N)=O)cccc3[nH]2)CCCN1 [ABT-888]
effect on PARP1 protein level [1]: significant reduction of PARP1

N.N.[Cl][Pt][Cl] [Cisplatin]
IC50 ([2]; OV90, wild-type BRCA1 ovarian cancer cells, COH29 72 h): 1.57 ± 0.29 µM | IC50 [3]: 1.32 ± 0.2 µM | IC50 [4]: 1.64 ± 0.04 µM | IC50 [5]: 2.25 ± 0.25 µM | IC50 ([6]; UWB1.289, BRCA1-defective ovarian cancer cells, COH29 72 h): 1.43 ± 0.87 µM | IC50 ([7]; UWB1.289 + BRCA1 (WT), COH29 72 h): 7.4 ± 2.02 µM | IC50 [8]: 0.38 ± 0.03 µM | IC50 [9]: 7.5 ± 0.3 µM | IC50 [10]: 0.69 µM | IC50 [11]: 5.02 ± 1.18 µM | IC50 ([12]; MDA-MB-231, TNBC, read-out: IC50, mean ± SEM): 3.74 ± 0.21 µM | IC50 ([13]; HCC1937, triple negative, BRCA1 mutant, COH29 72 h): 2.46 ± 0.11 µM | IC50 ([14]; HCC1937 + BRCA1, triple negative, COH29 72 h): 2.93 ± 0.55 µM | IC50 ([15]; MCF-7, ER+ PR(+)): 12.1 ± 1.02 µM | IC50 ([16]; SKBR3, ER− PR(−) HER2+): 0.99 ± 0.24 µM

Nc1ccn([C@@H]2O[C@H](CO)[C@@H](O)C2(F)F)c(=O)n1 [Gemcitabine]
IC50 ([2]; Homo sapiens, OV-90, OV90): 0.0783 ± 0.0116 µM | IC50 ([3]; Homo sapiens): 0.0284 ± 0.00418 µM | IC50 ([4]; Homo sapiens): 0.118 µM | IC50 ([5]; Homo sapiens): 0.0551 ± 0.00355 µM | IC50 [6, 18]: 0.05648 ± 0.00032 µM | IC50 [7, 19]: 0.0422 ± 0.00062 µM | IC50 ([8]; Homo sapiens): 0.06 ± 0.01 µM | IC50 ([9]; Homo sapiens, KB7D): 0.00069 ± 2e-05 µM | IC50 ([10]; Homo sapiens): 0.0255 ± 0.00166 µM | IC50 ([11]; Homo sapiens): 0.0363 ± 0.00079 µM | IC50 [12, 20]: 0.017 ± 0.00133 µM

NC(=O)NO [HU, hydroxyurea]
developmental defects ([17]; COH29 0-100 μM): caused defects in eyes and heart by 4 dpf | number of mutant embryos [17]: dose-dependent increase in the number of mutant embryos

CC(=O)O[C@H]1C(=O)[C@@]2(C)[C@H]([C@H](OC(=O)c3ccccc3)[C@]3(O)C[C@H](OC(=O)[C@H](O)[C@@H](NC(=O)c4ccccc4)c4ccccc4)C(C)=C1C3(C)C)[C@]1(OC(C)=O)CO[C@@H]1C[C@@H]2O [Paclitaxel]
IC50 ([2]; Homo sapiens, OV-90, OV90): 0.00909 ± 0.00041 µM | IC50 ([3]; Homo sapiens): 0.00645 ± 0.00105 µM | IC50 ([4]; Homo sapiens): 0.00289 ± 7e-05 µM | IC50 ([5]; Homo sapiens): 0.00555 ± 5e-05 µM | IC50 [6, 18]: 0.0139 ± 0.0007 µM | IC50 [7, 19]: 0.013 ± 0.00162 µM | IC50 ([8]; Homo sapiens): 0.00195 ± 0.00015 µM | IC50 ([9]; Homo sapiens, KB7D): 0.00517 ± 0.00017 µM | IC50 ([10]; Homo sapiens): 0.0036 ± 0.00167 µM | IC50 ([11]; Homo sapiens): 0.0114 ± 0.00149 µM | IC50 [12, 20]: 0.00201 ± 0.00057 µM | IC50 ([12]; Homo sapiens, MDA-MB-231, Table 3 paclitaxel column, read-out: IC50): 0.00201 ± 0.00057 µM | IC50 ([13]; Homo sapiens, HCC1937, Table 3 paclitaxel column): 0.00404 ± 0.00044 µM | IC50 ([14]; Homo sapiens, HCC1937 + BRCA1, Table 3 paclitaxel column): 0.0054 ± 7e-05 µM | IC50 ([15]; Homo sapiens, MCF7, MCF-7, Table 3 paclitaxel column): 0.00636 ± 0.00111 µM | IC50 ([16]; Homo sapiens, SK-BR-3, SKBR3, Table 3 paclitaxel column): 0.00337 ± 8e-05 µM
